We go through 11 compounds from ChEMBL document CHEMBL5465560, “Selectivity Literature for EUbOPEN Chemogenomic Library” (2024).

Assay [1] has as its target AMP-activated protein kinase alpha-2/beta-2/gamma-2 (Homo sapiens) (UniProt P54646+O43741+Q9UGJ0). In words: (§1) Selectivity interaction (LanthaScreen Eu Kinase Binding Assay) EUB0001632a […]. Type of assay: protein-complex assay. Conditions: at 10 µM.
For assay [2], the target named is AMPK alpha1/beta1/gamma2 (Homo sapiens) (UniProt Q9UGJ0+Q9Y478+Q13131). The assay is described as §1. The assay is classed as protein-complex assay. Conditions: at 10 µM.
For assay [3], the target named is AMPK alpha1/beta1/gamma3 (Homo sapiens) (UniProt Q9Y478+Q13131+Q9UGI9). Described as §1. The assay is classed as protein-complex assay. The conditions noted are these: at 10 µM.
The target of assay [4] is AMPK alpha1/beta2/gamma1 (Homo sapiens) (UniProt O43741+P54619+Q13131). The assay is described as §1. Type of assay: protein-complex assay. The conditions noted are these: at 10 µM.
Assay [5] addresses AMPK alpha2/beta2/gamma1 (Homo sapiens) (UniProt P54646+O43741+P54619). Described as §1. The assay is classed as protein-complex assay. The conditions noted are these: at 10 µM.
The target of assay [6] is Calcium/calmodulin-dependent protein kinase type 1D (Homo sapiens) (UniProt Q8IU85). In words: Selectivity interaction (Kinase panel (Z-LYTE Assay)) EUB0001632a CAMK1D. Conditions: at 10 µM.
Assay [7] addresses Serine/threonine-protein kinase SIK3 (Homo sapiens) (UniProt Q9Y2K2). In words: Selectivity interaction (KinomeScan (DiscoverX)) EUB0001619a SIK3. The conditions noted are these: at 1 µM.
Assay [8] addresses T1, Mitogen-activated protein kinase 12 (Homo sapiens) (UniProt P53778).
T1 sequence (whole entry): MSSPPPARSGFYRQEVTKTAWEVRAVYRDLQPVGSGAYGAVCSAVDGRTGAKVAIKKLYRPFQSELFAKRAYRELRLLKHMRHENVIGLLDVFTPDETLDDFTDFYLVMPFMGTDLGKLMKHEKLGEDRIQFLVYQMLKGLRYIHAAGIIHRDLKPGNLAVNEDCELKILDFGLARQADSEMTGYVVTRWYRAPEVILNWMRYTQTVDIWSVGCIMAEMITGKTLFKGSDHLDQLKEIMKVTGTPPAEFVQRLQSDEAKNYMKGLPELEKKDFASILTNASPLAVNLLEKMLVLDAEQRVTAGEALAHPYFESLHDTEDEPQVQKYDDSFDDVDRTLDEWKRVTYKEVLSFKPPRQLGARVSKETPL
In words: Selectivity interaction (KinomeScan (DiscoverX)) EUB0000607a MAPK12. The conditions noted are these: at 10 µM.

The target in assay [9] is Homeodomain-interacting protein kinase 3 (Homo sapiens, UniProt Q9H422). Conditions: at 10 µM.
Assay [10] concerns the target Serine/threonine-protein kinase PLK1 (Homo sapiens, UniProt P53350). In words: Selectivity interaction (ActivX KiNativ screen (kinase selectivity in THP-1 cell lysates)) EUB0000639a PLK1. Type of assay: subcellular. Conditions: lysate, at 5 µM.
Assay [11] has as its target DNA (cytosine-5)-methyltransferase 1 (Homo sapiens) (UniProt P26358). The conditions noted are these: at 10 µM.
For assay [12], the target named is Dual specificity protein kinase CLK1 (Homo sapiens, UniProt P49759). In words: Selectivity interaction (KinomeScan (DiscoverX)) EUB0001049a CLK1. Conditions: at 1 µM.
Assay [13] addresses Tyrosine-protein kinase Lck (Homo sapiens, UniProt P06239). In words: Selectivity interaction (KinomeScan (DiscoverX)) EUB0000655a LCK. The conditions noted are these: at 10 µM.
The target of assay [14] is T2, Serine/threonine-protein kinase haspin (Homo sapiens) (UniProt Q8TF76).
T2 sequence (whole entry): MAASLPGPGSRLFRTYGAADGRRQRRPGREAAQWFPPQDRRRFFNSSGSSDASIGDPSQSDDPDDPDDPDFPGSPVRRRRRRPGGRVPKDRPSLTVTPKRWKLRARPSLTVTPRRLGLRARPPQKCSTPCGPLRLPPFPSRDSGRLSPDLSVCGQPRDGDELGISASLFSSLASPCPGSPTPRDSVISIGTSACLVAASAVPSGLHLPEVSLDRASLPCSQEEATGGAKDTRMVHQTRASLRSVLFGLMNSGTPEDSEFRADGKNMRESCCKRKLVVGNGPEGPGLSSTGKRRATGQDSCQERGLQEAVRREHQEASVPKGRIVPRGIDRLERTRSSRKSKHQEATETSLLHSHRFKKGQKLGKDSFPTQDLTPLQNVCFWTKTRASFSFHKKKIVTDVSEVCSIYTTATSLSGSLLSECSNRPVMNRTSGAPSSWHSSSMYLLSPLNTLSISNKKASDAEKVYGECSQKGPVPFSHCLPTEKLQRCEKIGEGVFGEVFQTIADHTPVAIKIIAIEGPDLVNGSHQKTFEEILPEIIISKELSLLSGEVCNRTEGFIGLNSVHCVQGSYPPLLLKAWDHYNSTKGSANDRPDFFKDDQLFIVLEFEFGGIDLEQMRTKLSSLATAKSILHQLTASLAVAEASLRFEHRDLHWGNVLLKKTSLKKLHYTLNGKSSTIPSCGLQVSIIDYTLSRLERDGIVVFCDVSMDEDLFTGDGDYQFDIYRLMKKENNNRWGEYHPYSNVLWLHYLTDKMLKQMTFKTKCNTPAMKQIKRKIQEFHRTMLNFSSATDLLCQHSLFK
In words: Selectivity interaction (Kinase panel (DSF assay)) EUB0001558a GSG2.

The target of assay [15] is Serine/threonine-protein kinase PAK 6 (Homo sapiens) (UniProt Q9NQU5). In words: Selectivity interaction (KinomeScan (DiscoverX)) EUB0001079a PAK6. The conditions noted are these: at 1 µM.
The target in assay [16] is T3, Serine/threonine-protein kinase DCLK1 (Homo sapiens) (UniProt O15075).
T3 sequence (whole entry): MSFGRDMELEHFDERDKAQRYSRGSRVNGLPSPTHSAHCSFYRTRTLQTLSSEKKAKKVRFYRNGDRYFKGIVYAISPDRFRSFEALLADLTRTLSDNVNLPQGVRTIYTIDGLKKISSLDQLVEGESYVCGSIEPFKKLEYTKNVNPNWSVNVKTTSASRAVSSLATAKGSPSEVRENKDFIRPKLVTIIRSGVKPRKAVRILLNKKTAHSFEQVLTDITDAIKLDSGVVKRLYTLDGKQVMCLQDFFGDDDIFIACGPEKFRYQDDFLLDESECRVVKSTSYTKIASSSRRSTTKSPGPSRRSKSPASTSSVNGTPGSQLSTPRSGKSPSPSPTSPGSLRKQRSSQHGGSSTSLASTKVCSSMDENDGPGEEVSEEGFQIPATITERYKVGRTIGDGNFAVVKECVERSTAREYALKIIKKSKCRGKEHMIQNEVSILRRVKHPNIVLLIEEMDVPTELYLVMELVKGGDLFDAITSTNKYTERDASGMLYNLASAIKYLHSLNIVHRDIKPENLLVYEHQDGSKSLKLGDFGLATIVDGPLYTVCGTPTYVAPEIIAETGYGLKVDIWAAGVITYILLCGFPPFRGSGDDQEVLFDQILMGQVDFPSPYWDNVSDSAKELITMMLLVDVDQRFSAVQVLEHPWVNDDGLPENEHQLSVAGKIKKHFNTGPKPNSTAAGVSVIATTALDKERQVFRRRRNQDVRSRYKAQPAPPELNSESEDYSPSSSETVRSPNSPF
In words: Selectivity interaction (KinomeScan (DiscoverX)) EUB0000229b DCLK1. The conditions noted are these: at 10 µM.

Serine/threonine-protein kinase PLK1, sequence (P53350 whole entry): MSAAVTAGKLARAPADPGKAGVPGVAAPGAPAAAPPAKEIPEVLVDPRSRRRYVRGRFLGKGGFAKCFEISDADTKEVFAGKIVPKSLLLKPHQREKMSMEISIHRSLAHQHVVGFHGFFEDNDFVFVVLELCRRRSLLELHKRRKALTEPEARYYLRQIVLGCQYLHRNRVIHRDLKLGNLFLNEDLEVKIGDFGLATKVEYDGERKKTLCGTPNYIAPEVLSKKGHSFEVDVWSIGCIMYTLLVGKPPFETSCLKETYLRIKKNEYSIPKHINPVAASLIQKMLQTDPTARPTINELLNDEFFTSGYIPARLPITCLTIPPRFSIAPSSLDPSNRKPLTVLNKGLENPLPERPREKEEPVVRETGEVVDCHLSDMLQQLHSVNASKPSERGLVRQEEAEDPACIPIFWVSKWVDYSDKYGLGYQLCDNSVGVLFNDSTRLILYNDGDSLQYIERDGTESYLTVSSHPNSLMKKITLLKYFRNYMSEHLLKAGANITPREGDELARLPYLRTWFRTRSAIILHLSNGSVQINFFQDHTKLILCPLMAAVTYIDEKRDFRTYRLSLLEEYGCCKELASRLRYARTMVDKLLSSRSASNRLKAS
Homeodomain-interacting protein kinase 3, sequence (Q9H422 whole entry, looked up): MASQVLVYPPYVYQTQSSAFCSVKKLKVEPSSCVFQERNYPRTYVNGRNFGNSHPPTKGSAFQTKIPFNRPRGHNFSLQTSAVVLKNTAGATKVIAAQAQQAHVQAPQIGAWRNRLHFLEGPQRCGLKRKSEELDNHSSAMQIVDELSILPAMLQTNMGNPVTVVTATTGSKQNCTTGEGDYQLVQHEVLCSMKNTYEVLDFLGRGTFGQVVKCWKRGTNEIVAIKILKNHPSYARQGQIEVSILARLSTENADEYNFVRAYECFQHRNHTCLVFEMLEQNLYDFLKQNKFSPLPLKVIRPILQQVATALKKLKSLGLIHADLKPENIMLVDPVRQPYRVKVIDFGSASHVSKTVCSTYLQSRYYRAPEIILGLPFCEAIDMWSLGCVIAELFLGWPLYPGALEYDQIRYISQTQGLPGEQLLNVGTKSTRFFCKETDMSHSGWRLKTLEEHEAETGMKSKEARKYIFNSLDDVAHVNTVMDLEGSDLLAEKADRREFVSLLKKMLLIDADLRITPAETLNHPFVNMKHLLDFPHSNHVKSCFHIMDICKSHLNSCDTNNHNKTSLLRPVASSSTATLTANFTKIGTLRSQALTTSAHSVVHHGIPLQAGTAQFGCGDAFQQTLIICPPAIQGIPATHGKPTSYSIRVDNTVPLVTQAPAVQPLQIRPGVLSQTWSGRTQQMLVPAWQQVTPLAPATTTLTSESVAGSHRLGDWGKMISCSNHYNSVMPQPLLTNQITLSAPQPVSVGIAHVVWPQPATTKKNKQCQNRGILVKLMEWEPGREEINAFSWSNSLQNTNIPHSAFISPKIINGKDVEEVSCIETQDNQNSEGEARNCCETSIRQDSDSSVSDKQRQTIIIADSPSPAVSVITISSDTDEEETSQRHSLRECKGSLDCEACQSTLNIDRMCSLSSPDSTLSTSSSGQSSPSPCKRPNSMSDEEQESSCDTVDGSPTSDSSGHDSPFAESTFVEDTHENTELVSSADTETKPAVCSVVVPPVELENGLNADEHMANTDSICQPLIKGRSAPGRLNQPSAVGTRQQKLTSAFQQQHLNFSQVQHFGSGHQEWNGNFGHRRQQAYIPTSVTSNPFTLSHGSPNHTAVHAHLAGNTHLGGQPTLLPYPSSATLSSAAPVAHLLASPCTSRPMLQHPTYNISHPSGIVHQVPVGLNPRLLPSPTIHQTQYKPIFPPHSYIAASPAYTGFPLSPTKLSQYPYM
Serine/threonine-protein kinase SIK3 (Homo sapiens), sequence (Q9Y2K2 whole entry, looked up): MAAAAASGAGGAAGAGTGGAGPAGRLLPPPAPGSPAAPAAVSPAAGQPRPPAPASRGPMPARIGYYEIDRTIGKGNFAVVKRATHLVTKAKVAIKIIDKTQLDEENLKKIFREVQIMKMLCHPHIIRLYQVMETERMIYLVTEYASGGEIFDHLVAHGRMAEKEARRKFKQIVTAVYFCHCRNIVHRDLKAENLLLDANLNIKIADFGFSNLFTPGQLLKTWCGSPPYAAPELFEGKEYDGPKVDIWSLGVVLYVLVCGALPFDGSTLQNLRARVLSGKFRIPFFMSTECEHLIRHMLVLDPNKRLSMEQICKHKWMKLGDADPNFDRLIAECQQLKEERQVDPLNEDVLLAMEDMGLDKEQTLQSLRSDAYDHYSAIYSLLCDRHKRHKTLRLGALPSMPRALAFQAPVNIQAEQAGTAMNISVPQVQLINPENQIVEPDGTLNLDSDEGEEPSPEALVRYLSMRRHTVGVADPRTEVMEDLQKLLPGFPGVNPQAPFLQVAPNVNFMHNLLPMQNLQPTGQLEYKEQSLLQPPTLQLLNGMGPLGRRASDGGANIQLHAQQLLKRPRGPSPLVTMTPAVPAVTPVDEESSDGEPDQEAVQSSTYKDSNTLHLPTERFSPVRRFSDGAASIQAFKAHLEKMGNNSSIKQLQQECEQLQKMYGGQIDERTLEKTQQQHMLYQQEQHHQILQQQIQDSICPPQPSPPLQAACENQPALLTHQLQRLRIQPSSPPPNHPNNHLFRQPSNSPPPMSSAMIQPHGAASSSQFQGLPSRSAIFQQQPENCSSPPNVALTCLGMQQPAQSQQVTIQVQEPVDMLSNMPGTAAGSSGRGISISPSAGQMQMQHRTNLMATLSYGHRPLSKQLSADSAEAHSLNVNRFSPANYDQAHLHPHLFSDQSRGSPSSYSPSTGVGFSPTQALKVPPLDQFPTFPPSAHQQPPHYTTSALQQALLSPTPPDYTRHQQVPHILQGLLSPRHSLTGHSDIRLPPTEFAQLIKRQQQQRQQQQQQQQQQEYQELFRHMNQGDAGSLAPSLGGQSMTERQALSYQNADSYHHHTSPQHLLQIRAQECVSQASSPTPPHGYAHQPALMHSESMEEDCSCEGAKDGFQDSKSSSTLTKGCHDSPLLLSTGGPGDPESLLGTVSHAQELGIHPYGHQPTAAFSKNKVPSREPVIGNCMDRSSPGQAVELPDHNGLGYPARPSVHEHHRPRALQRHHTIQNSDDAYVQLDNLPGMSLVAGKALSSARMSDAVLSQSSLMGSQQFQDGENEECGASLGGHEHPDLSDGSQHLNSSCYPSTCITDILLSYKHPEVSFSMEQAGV
Tyrosine-protein kinase Lck, sequence (P06239 2-509 limits assumed): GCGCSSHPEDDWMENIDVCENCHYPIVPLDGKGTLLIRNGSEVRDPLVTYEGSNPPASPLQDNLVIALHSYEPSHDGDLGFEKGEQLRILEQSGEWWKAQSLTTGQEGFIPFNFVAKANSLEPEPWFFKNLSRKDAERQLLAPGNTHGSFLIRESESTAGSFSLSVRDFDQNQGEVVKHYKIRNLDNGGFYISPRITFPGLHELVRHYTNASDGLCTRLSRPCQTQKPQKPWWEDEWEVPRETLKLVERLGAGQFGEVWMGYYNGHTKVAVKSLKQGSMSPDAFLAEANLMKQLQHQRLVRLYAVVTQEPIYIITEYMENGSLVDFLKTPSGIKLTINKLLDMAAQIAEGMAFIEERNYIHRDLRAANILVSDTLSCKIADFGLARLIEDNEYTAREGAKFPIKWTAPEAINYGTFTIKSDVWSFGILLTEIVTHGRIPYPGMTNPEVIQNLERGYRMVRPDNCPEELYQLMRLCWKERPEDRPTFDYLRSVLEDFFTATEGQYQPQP
Dual specificity protein kinase CLK1, sequence (P49759 whole entry, looked up): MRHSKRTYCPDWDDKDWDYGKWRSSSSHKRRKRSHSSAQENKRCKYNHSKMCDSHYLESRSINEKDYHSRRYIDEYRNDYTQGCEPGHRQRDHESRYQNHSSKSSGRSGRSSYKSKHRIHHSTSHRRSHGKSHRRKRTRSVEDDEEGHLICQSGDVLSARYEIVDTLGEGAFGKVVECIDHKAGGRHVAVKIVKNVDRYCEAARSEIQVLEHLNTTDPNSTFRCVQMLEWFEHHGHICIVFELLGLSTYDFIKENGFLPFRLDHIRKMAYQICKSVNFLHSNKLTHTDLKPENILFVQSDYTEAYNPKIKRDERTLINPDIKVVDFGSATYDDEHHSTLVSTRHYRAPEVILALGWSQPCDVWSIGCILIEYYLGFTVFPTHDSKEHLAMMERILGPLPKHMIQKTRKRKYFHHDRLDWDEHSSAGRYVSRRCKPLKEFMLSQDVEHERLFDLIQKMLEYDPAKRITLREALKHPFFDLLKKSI
Serine/threonine-protein kinase PAK 6 (Homo sapiens), sequence (Q9NQU5 whole entry, looked up): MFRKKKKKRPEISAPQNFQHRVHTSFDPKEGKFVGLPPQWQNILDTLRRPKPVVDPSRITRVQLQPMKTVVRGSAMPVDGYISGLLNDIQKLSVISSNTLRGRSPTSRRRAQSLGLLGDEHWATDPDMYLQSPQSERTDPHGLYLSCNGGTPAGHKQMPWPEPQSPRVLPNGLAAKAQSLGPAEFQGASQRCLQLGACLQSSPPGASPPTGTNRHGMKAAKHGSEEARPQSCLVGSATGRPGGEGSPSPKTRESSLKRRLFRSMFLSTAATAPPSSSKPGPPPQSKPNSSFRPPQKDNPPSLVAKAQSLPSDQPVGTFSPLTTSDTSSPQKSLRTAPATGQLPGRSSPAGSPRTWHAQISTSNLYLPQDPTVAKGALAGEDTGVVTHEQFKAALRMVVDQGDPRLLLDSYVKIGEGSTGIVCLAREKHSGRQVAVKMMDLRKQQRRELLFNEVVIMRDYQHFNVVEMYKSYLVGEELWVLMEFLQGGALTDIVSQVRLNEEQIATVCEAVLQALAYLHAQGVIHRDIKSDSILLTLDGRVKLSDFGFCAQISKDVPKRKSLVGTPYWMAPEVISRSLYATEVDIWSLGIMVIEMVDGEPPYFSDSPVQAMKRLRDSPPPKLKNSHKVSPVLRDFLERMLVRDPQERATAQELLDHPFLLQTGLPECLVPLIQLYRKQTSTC

In the case of `Cn1cc(-n2cnc3c(NCc4nc5cc(Cl)c(Cl)cc5[nH]4)nc(N4CCOCC4)nc32)cn1`, the % of inhibition was 1.19% in assay [1]; 0.872% in assay [2]; 2.78% in [3]; -9.67% in assay [4]; -4.3% in assay [5]. In [6], the % of control was 2.81%. `N#Cc1cccc(-c2c[nH]c3ncnc(N4CCOCC4)c23)c1`: the % of control in assay [7] was determined as 100%. On to `CNC(=O)Nc1ccc(-c2nc(N3CC4CCC(C3)O4)c3cnn(C4CCC5(CC4)OCCO5)c3n2)cc1`, for which the % of control in assay [8] worked out at 54%. In assay [9], `Cc1cc([C@@H](C)Nc2ccccc2C(=O)O)c2nc(N3CCOCC3)cc(=O)n2c1` [AZD-6482] showed a % of control of 89%.

With `CC[C@@H]1[C@H](F)C(=O)N[C@@H]1COc1nccc2cc(C(N)=O)c(OC)cc12` [ZIMLOVISERTIB], the % of inhibition in assay [10] stood at 12.2%. Take `CNCCN1CCC(c2cc(CN(C)C(=O)c3cccc(Oc4ccccc4)c3)ccn2)CC1`: the % activity in assay [11] is above 90%.

In turn, `COc1cc(Nc2nc(C)cc(-c3cnn4nc(OC)ccc34)n2)cc(C(F)(F)F)c1` displayed a % of control in assay [12] of 100%.

Turning to `CN(C)CCOc1ccc(-c2nc(-c3ccncc3)c(-c3ccc4c(c3)CC/C4=N\O)[nH]2)cc1`, in assay [13], the % of control stood at 29%. The compound `CC(C)(O)[C@H](F)CN1Cc2cc(NC(=O)c3cnn4cccnc34)c(N3CCOCC3)cc2C1=O` gave a dTM in assay [14] of 0.4 K.

Take `Nc1cnc(N2CCc3cc(S(=O)(=O)Nc4c(F)cc(Cl)cc4F)cc(N4CCCC4=O)c32)nc1` [TP-020n]: the % of control in [15] came to 90%.

On to `COc1cc(N(C)c2ccnc3ccc(C(F)(F)F)cc23)cc(OC)c1OC`, for which the % binding in [16] was found to be 73%.
